These results are taken from US20170369470A1, “Cyclic Compounds and Uses Thereof” (Karyopharm Therapeutics Inc., priority 2014, published 2017).

The structures appear in SMILES notation.

Type in all cases: cell-based
For one assay, the system named is Z138 cells. As to the kind of experiment: MTT cell proliferation assay, Z138 cells. To be noted: Homo sapiens, Z-138; Z138 cells (mantle cell lymphoma line); incubation approximately 64-72 hours. The procedure: (§1) The MTT cell proliferation assay was used to study the cytotoxic properties of the compounds. The assay was performed according to the method described by Roche Molecular Biochemicals, with minor modifications. The assay is based on the cleavage of the tetrazolium salt, MTT, in the presence of an electron-coupling reagent. The water-insoluble formazan salt produced must be solubilized in an additional step. Cells grown in a 96-well tissue culture plate were incubated with the MTT solution for approximately 4 hours. After this incubation period, a water-insoluble formazan dye formed. After solubilization, the formazan dye was quantitated using a scanning multi-well spectrophotometer (ELISA reader). […] The cells were seeded at 5,000-10,000 cells in each well of 96-well plate in 100 μL of fresh culture medium and were allowed to attach overnight. The stock solutions of the compounds were diluted in 100 μL cell culture medium to obtain eight concentrations of each test compound, ranging from 1 nM to 30 μM. […] All optical densities were measured at 490 nm using a Vmax Kinetic Microplate Reader (Molecular Devices). In most cases, the assay was performed in duplicate and the results were presented as a mean percent inhibition to the negative control±SE. The following formula was used to calculate the percent of inhibition: Inhibition (%)=(1−(ODo/OD))×100.
(§2) The compounds were tested against MS751, Z138 and 3T3 cells. The MS751 cell line is derived from a metastasis to lymph node of human cervix from a patient diagnosed with squameous cell carcinoma of the cervix. The Z138 cell line is a mature B-cell acute lymphoblastic leukemia cell line derived from a patient with chronic lumphocytic leukemia. 3T3 cells are standard fibroblast cells; they were originally isolated from Swiss mouse embryo tissue.

A further assay deals with 3T3 cells. As to the kind of experiment: MTT cell proliferation assay, 3T3 cells. To be noted: NIH3T3; 3T3 fibroblast cells (Swiss mouse embryo); incubation approximately 64-72 hours. The protocol:
as §1, §2
For orientation: Tetrazolium dyes change colour on reduction, which living cells bring about.

In the next assay the test system is MS751 cells. As to the kind of experiment: MTT cell proliferation assay, MS751 cells. To be noted: MS751 cells (human cervix squamous cell carcinoma metastasis); incubation approximately 64-72 hours; read-out: MTT Assay IC50 MS 751. The procedure:
as §1, §2

Broadly, the IC50 is the concentration that gives 50% inhibition. As to `Nc1ccc(/C=C/C(=O)NCc2cc3cc(-c4ccc(C(=O)N5CCC(F)(F)CC5)cc4)cc(-c4ccc(F)cc4)c3s2)cn1` [compound 536, (E)-3-(6-aminopyridin-3-yl)-N-((5-(4-(4,4-difluoropiperidine-1-carbonyl)phenyl)-7-(4-fluorophenyl)benzo[b]thiophen-2-yl)methyl)acrylamide], the IC50 in the assay on Z138 cells was < 1 µM; with 3T3 cells, > 10 µM; with MS751 cells, < 1 µM.
